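Here, GI50 denotes the concentration required for 50% inhibition of growth. TGI: concentration producing complete growth inhibition.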
Legend:
Experiment in all cases: NCI-60 cell line screen, 384-well format
[1] = system: ACHN renal
[2] = system: BT-549 breast
[3] = system: HCT-15 colon
[4] = system: HOP-62 NSCLC
[5] = system: NCI-H226 lung
[6] = system: NCI-H23 lung
[7] = system: NCI-H322M lung
[8] = system: NCI-H460 NSCLC
[9] = system: PC-3 prostate
[10] = system: SF-268 CNS
[11] = system: SK-MEL-28 melanoma
[12] = system: SK-MEL-5 melanoma
[13] = system: UACC-62 melanoma

With `COCc1c(-c2cc3cc(C)cc(OC)c3s2)c2c(N)ncnn2c1CN1CCNC(=O)C1` the GI50 [1] was 6.15 µM, the TGI [1] was > 100 µM and the GI50 [2] was 0.385 µM. The TGI [2] was 5.45 µM, the GI50 [3] was 5.39 µM and the TGI [3] was > 100 µM. For the same compound, the GI50 [4] was 12.8 µM, the TGI [4] was > 100 µM and the GI50 [5] was 1.26 µM. It also gave a TGI [5] of 21.7 µM, a GI50 [6] of 4.13 µM and a TGI [6] of 28.9 µM. The GI50 [7] was 3.89 µM, the TGI [7] was 36.8 µM and the GI50 [8] was 4.62 µM. The TGI [8] was > 96.2 µM, the GI50 [9] was 23.2 µM and the TGI [9] was > 100 µM. The GI50 [10] was 8.67 µM, the TGI [10] was > 81.6 µM and the GI50 [11] was 28.7 µM. The TGI [11] was > 100 µM, the GI50 [12] was 7.29 µM and the TGI [12] was 31.3 µM. It also gave a GI50 [13] of 6.36 µM and a TGI [13] of 37 µM.
